Measurements: patent publication US20230085307A1, “PYRIDAZINONE COMPOUND AND HERBICIDE” (NISSAN CHEMICAL CORPORATION, priority 2019, published 2023)

Columns and labels:
rice flat sedge = assay: Test Example 3: herbicidal effect by foliage application, Wagner pot (Table 18, symbol E); format: in vivo, rice flat sedge (Cyperus iria)
In short: (§1)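 Plants were sown in alluvial soil held under 0.1–0.5 cm standing water and grown 14 days in a greenhouse at 25–30 °C. An emulsifiable formulation, water-diluted to the set dose, was then sprayed onto the foliage, and effects were scored three weeks later using previously defined criteria.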

late watergrass [1] = assay: Test Example 2: herbicidal activity, application during weed generation under submerged conditions (Table 17, symbol A); format: in vivo, late watergrass (Echinochloa oryzicola); conditions: application during weed generation, submerged conditions
In short: (§2)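 Wagner pot, alluvial soil, 4 cm flood; mixed sowing of all species; greenhouse 25° C.–30° C. Emulsifiable formulation, water-diluted to predetermined dose, applied to paddy water at 1–2 leaf stage. Effect rated at 3 wk using the earlier test's scoring criteria.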

Italian ryegrass [2] = assay: Test Example 5: herbicidal effect by foliage application, plastic box (Table 20, symbol K); format: in vivo, Italian ryegrass (Lolium multiflorum); conditions: foliage application, three weeks after application
In short: (§3)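 Sow seeds spot-wise in sterilized diluvial soil; cover with ~1.5 cm soil. Grow 14 days in greenhouse, 25° C. to 30° C. Spray foliage with emulsion diluted to predetermined amount. Rate effect after 3 weeks.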

Japanese bulrush = assay: Test Example 2: herbicidal activity, application during weed generation under submerged conditions (Table 17, symbol B); format: in vivo, Japanese bulrush (Schoenoplectus juncoides); conditions: application during weed generation, submerged conditions
In short: as §2

southern crabgrass = assay: Test Example 5: herbicidal effect by foliage application, plastic box (Table 20, symbol F); format: in vivo, southern crabgrass (Digitaria ciliaris); conditions: foliage application, three weeks after application
In short: as §3

windgrass [3] = assay: Test Example 5: herbicidal effect by foliage application, plastic box (Table 20, symbol L); format: in vivo, windgrass (Apera spica-venti); conditions: foliage application, three weeks after application
In short: as §3

late watergrass [4] = assay: Test Example 1: herbicidal activity, application before weed generation under submerged conditions (Table 16, symbol A); format: in vivo, late watergrass (Echinochloa oryzicola)
In short: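 Emulsion formulation, water-diluted to set dose, was put onto the flooded surface (4 cm depth, alluvial soil) the same day weeds were sown and 2.5-leaf rice transplanted. After 3 weeks at 25-30 °C under glass, each species was rated 0 (≤5% kill) to 5 (≥90% kill).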

persian speedwell [5] = assay: Test Example 4: herbicidal effect by soil treatment (Table 19, symbol R); format: in vivo, Persian speedwell (Veronica persica)
In short: (§4)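 Applied as a water-diluted emulsion, the compound was sprayed onto soil covering newly sown seeds. Evaluation came three weeks after application, in a greenhouse held at 25° C. to 30° C.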

chickweed = assay: Test Example 4: herbicidal effect by soil treatment (Table 19, symbol P); format: in vivo, common chickweed (Stellaria media)
In short: as §4

windgrass [6] = assay: Test Example 4: herbicidal effect by soil treatment (Table 19, symbol L); format: in vivo, windgrass (Apera spica-venti)
In short: as §4

Italian ryegrass [7] = assay: Test Example 4: herbicidal effect by soil treatment (Table 19, symbol K); format: in vivo, Italian ryegrass (Lolium multiflorum)
In short: as §4

persian speedwell [8] = assay: Test Example 5: herbicidal effect by foliage application, plastic box (Table 20, symbol R); format: in vivo, Persian speedwell (Veronica persica); conditions: foliage application, three weeks after application
In short: as §3

barnyard grass = assay: Test Example 3: herbicidal effect by foliage application, Wagner pot (Table 18, symbol H); format: in vivo, barnyard grass (Echinochloa crus-galli)
In short: as §1

lambsquarters = assay: Test Example 5: herbicidal effect by foliage application, plastic box (Table 20, symbol O); format: in vivo, lambsquarters (Chenopodium album); conditions: foliage application, three weeks after application
In short: as §3

green foxtail [9] = assay: Test Example 5: herbicidal effect by foliage application, plastic box (Table 20, symbol G); format: in vivo, green foxtail (Setaria viridis); conditions: foliage application, three weeks after application
In short: as §3

oval-leafed pondweed = assay: Test Example 2: herbicidal activity, application during weed generation under submerged conditions (Table 17, symbol C); format: in vivo, oval-leafed pondweed (Monochoria vaginalis); conditions: application during weed generation, submerged conditions
In short: as §2

green foxtail [10] = assay: Test Example 4: herbicidal effect by soil treatment (Table 19, symbol G); format: in vivo, green foxtail (Setaria viridis)
In short: as §4

[11] = amount of applied herbicide 320 g/ha
[12] = amount of applied herbicide 224 g/ha
[13] = amount of applied herbicide 304 g/ha

SMILES | herbicidal effect on rice flat sedge (E) (rice flat sedge; 320 g/ha) | herbicidal effect rating, A: late watergrass (late watergrass [1]; AAH 320 g/ha) | K: Italian ryegrass, herbicidal effect grade (Italian ryegrass [2]; 320 g/ha) | herbicidal effect rating, B: Japanese bulrush (Japanese bulrush; AAH 320 g/ha) | F: southern crabgrass, herbicidal effect grade (southern crabgrass; 320 g/ha) | L: windgrass, herbicidal effect grade (windgrass [3]; 320 g/ha) | Herbicidal effect, A: late watergrass (late watergrass [4]; [11]) | R: persian speedwell, herbicidal effect grade (persian speedwell [5]; [11]) | P: chickweed, herbicidal effect grade (chickweed; [11]) | L: windgrass, herbicidal effect grade (windgrass [6]; [11]) | K: Italian ryegrass, herbicidal effect grade (Italian ryegrass [7]; [11]) | R: persian speedwell, herbicidal effect grade (persian speedwell [8]; 320 g/ha) | herbicidal effect on barnyard grass (H) (barnyard grass; 320 g/ha) | O: lambsquarters, herbicidal effect grade (lambsquarters; 320 g/ha) | G: green foxtail, herbicidal effect grade (green foxtail [9]; 320 g/ha) | herbicidal effect rating, C: oval-leafed pondweed (oval-leafed pondweed; AAH 320 g/ha) | G: green foxtail, herbicidal effect grade (green foxtail [10]; [11]) | further results
CCOc1ccccc1-c1sc2cc(Cl)ccc2c1-c1c(O)c(C)nn(C)c1=O [3-039] | 5 (Herbicidal rate of 90% or more (almost completely withered)) | 2 (Herbicidal rate of 20% or more and less than 40%) | 4 (Herbicidal rate of 70% or more and less than 90%) | 2 (Herbicidal rate of 20% or more and less than 40%) | 5 (Herbicidal rate of 90% or more (almost completely withered)) | 4 (Herbicidal rate of 70% or more and less than 90%) | 2 (Herbicidal rate of 20% or more and less than 40%) | 5 (Herbicidal rate of 90% or more (almost completely withered)) | 5 (Herbicidal rate of 90% or more (almost completely withered)) | 0 (Herbicidal rate of 5% or less (almost no effect)) | 0 (Herbicidal rate of 5% or less (almost no effect)) | 5 (Herbicidal rate of 90% or more (almost completely withered)) | 4 (Herbicidal rate of 70% or more and less than 90%) | 3 (Herbicidal rate of 40% or more and less than 70%) | 5 (Herbicidal rate of 90% or more (almost completely withered)) | 0 (Herbicidal rate of 5% or less (almost no effect)) | 4 (Herbicidal rate of 70% or more and less than 90%) | 
CCCC(=O)Oc1c(C)nn(C)c(=O)c1-c1c(-c2ccccc2OCC)sc2cc(Cl)ccc12 [3-040] | 5 (Herbicidal rate of 90% or more (almost completely withered)) | 2 (Herbicidal rate of 20% or more and less than 40%) | 0 (Herbicidal rate of 5% or less (almost no effect)) | 2 (Herbicidal rate of 20% or more and less than 40%) | 4 (Herbicidal rate of 70% or more and less than 90%) | 5 (Herbicidal rate of 90% or more (almost completely withered)) | 4 (Herbicidal rate of 70% or more and less than 90%) | 4 (Herbicidal rate of 70% or more and less than 90%) | 4 (Herbicidal rate of 70% or more and less than 90%) | 5 (Herbicidal rate of 90% or more (almost completely withered)) | 0 (Herbicidal rate of 5% or less (almost no effect)) | 4 (Herbicidal rate of 70% or more and less than 90%) | 5 (Herbicidal rate of 90% or more (almost completely withered)) | 2 (Herbicidal rate of 20% or more and less than 40%) | 4 (Herbicidal rate of 70% or more and less than 90%) | 3 (Herbicidal rate of 40% or more and less than 70%) | 2 (Herbicidal rate of 20% or more and less than 40%) | 
CCCC(=O)Oc1c(C)nn(C)c(=O)c1-c1c(-c2ccccc2OC)sc2cc(C)ccc12 [3-050] |  |  |  |  |  |  |  |  |  |  |  |  |  |  |  |  |  | herbicidal effect on rice flat sedge (E) (rice flat sedge; 224 g/ha): 3 (Herbicidal rate of 40% or more and less than 70%); herbicidal effect rating, A: late watergrass (late watergrass [1]; AAH 224 g/ha): 0 (Herbicidal rate of 5% or less (almost no effect)); K: Italian ryegrass, herbicidal effect grade (Italian ryegrass [2]; 224 g/ha): 4 (Herbicidal rate of 70% or more and less than 90%); herbicidal effect rating, B: Japanese bulrush (Japanese bulrush; AAH 224 g/ha): 1 (Herbicidal rate of 5% or more and less than 20%); F: southern crabgrass, herbicidal effect grade (southern crabgrass; 224 g/ha): 4 (Herbicidal rate of 70% or more and less than 90%); L: windgrass, herbicidal effect grade (windgrass [3]; 224 g/ha): 4 (Herbicidal rate of 70% or more and less than 90%); Herbicidal effect, A: late watergrass (late watergrass [4]; [12]): 2 (Herbicidal rate of 20% or more and less than 40%); R: persian speedwell, herbicidal effect grade (persian speedwell [5]; [12]): 1 (Herbicidal rate of 5% or more and less than 20%); P: chickweed, herbicidal effect grade (chickweed; [12]): 3 (Herbicidal rate of 40% or more and less than 70%); L: windgrass, herbicidal effect grade (windgrass [6]; [12]): 2 (Herbicidal rate of 20% or more and less than 40%); K: Italian ryegrass, herbicidal effect grade (Italian ryegrass [7]; [12]): 1 (Herbicidal rate of 5% or more and less than 20%); R: persian speedwell, herbicidal effect grade (persian speedwell [8]; 224 g/ha): 5 (Herbicidal rate of 90% or more (almost completely withered)); herbicidal effect on barnyard grass (H) (barnyard grass; 224 g/ha): 4 (Herbicidal rate of 70% or more and less than 90%); O: lambsquarters, herbicidal effect grade (lambsquarters; 224 g/ha): 0 (Herbicidal rate of 5% or less (almost no effect)); G: green foxtail, herbicidal effect grade (green foxtail [9]; 224 g/ha): 3 (Herbicidal rate of 40% or more and less than 70%); herbicidal effect rating, C: oval-leafed pondweed (oval-leafed pondweed; AAH 224 g/ha): 3 (Herbicidal rate of 40% or more and less than 70%); G: green foxtail, herbicidal effect grade (green foxtail [10]; [12]): 0 (Herbicidal rate of 5% or less (almost no effect))
CCCC(=O)Oc1c(C)nn(C)c(=O)c1-c1c(-c2ccccc2OCC)sc2cc(C)ccc12 [3-054] |  |  |  |  |  |  |  |  |  |  |  |  |  |  |  |  |  | herbicidal effect on rice flat sedge (E) (rice flat sedge; 304 g/ha): 5 (Herbicidal rate of 90% or more (almost completely withered)); herbicidal effect rating, A: late watergrass (late watergrass [1]; AAH 304 g/ha): 2 (Herbicidal rate of 20% or more and less than 40%); K: Italian ryegrass, herbicidal effect grade (Italian ryegrass [2]; 304 g/ha): 5 (Herbicidal rate of 90% or more (almost completely withered)); herbicidal effect rating, B: Japanese bulrush (Japanese bulrush; AAH 304 g/ha): 3 (Herbicidal rate of 40% or more and less than 70%); F: southern crabgrass, herbicidal effect grade (southern crabgrass; 304 g/ha): 5 (Herbicidal rate of 90% or more (almost completely withered)); L: windgrass, herbicidal effect grade (windgrass [3]; 304 g/ha): 4 (Herbicidal rate of 70% or more and less than 90%); Herbicidal effect, A: late watergrass (late watergrass [4]; [13]): 5 (Herbicidal rate of 90% or more (almost completely withered)); R: persian speedwell, herbicidal effect grade (persian speedwell [5]; [13]): 3 (Herbicidal rate of 40% or more and less than 70%); P: chickweed, herbicidal effect grade (chickweed; [13]): 3 (Herbicidal rate of 40% or more and less than 70%); L: windgrass, herbicidal effect grade (windgrass [6]; [13]): 3 (Herbicidal rate of 40% or more and less than 70%); K: Italian ryegrass, herbicidal effect grade (Italian ryegrass [7]; [13]): 3 (Herbicidal rate of 40% or more and less than 70%); R: persian speedwell, herbicidal effect grade (persian speedwell [8]; 304 g/ha): 5 (Herbicidal rate of 90% or more (almost completely withered)); herbicidal effect on barnyard grass (H) (barnyard grass; 304 g/ha): 5 (Herbicidal rate of 90% or more (almost completely withered)); O: lambsquarters, herbicidal effect grade (lambsquarters; 304 g/ha): 4 (Herbicidal rate of 70% or more and less than 90%); G: green foxtail, herbicidal effect grade (green foxtail [9]; 304 g/ha): 5 (Herbicidal rate of 90% or more (almost completely withered)); herbicidal effect rating, C: oval-leafed pondweed (oval-leafed pondweed; AAH 304 g/ha): 3 (Herbicidal rate of 40% or more and less than 70%); G: green foxtail, herbicidal effect grade (green foxtail [10]; [13]): 3 (Herbicidal rate of 40% or more and less than 70%)
